Test results taken from PubChem BioAssay (NCI).
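Values below derive from 48-hour exposures of cells grown in 96-well plates, with endpoints linearly interpolated between the two concentrations bracketing the appropriate inhibition level. At the TGI there is no net growth.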

Key:
Experiment in all cases: NCI tumour cell line growth inhibition, 48 h
[1] = test system: 786-0 renal
[2] = test system: A498 renal
[3] = test system: A549 NSCLC
[4] = test system: ACHN renal
[5] = test system: BT-549 breast
[6] = test system: CAKI-1 renal
[7] = test system: CCRF-CEM leukemia
[8] = test system: COLO 205 colon
[9] = test system: DU-145 prostate
[10] = test system: EKVX NSCLC
[11] = test system: HCC-2998 colon
[12] = test system: HCT-116 colon
[13] = test system: HCT-15 colon
[14] = test system: HL-60(TB) leukemia
[15] = test system: HOP-62 NSCLC
[16] = test system: HOP-92 NSCLC
[17] = test system: HS 578T breast
[18] = test system: HT29 colon
[19] = test system: IGROV1 ovarian
[20] = test system: K-562 leukemia
[21] = test system: KM12 colon
[22] = test system: LOX IMVI melanoma
[23] = test system: M14 melanoma
[24] = test system: MALME-3M melanoma
[25] = test system: MCF7 breast
[26] = test system: MDA-MB-231 breast
[27] = test system: MDA-MB-435
[28] = test system: MDA-N
[29] = test system: MOLT-4 leukemia
[30] = test system: NCI-H226 lung
[31] = test system: NCI-H23 lung
[32] = test system: NCI-H460 lung
[33] = test system: NCI-H522 lung
[34] = test system: NCI/ADR-RES ovarian
[35] = test system: OVCAR-3 ovarian
[36] = test system: OVCAR-4 ovarian
[37] = test system: OVCAR-5 ovarian
[38] = test system: OVCAR-8 ovarian
[39] = test system: PC-3 prostate
[40] = test system: RPMI-8226 leukemia
[41] = test system: RXF 393 renal
[42] = test system: SF-268 CNS
[43] = test system: SF-295 CNS
[44] = test system: SF-539 CNS
[45] = test system: SK-MEL-2 melanoma
[46] = test system: SK-MEL-28 melanoma
[47] = test system: SK-MEL-5 melanoma
[48] = test system: SK-OV-3 ovarian
[49] = test system: SN12C renal
[50] = test system: SNB-19 CNS
[51] = test system: SNB-75 CNS
[52] = test system: SW-620 colon
[53] = test system: T-47D breast
[54] = test system: TK-10 renal
[55] = test system: U251 CNS
[56] = test system: UACC-257 melanoma
[57] = test system: UACC-62 melanoma
[58] = test system: UO-31 renal

`Nc1nc(Cl)c(N=Nc2ccc(Cl)cc2)c(NCC2(CO)CCC(CCc3ccccc3)C2)n1` (stereo not drawn) gave a TGI [1] of 21.6 µM, a TGI [2] of 27.3 µM and a TGI [3] of 51.7 µM. For the same compound, the TGI [4] was 19.9 µM, the TGI [5] was 23.4 µM and the TGI [6] was 13.5 µM. For the same compound, the TGI [7] was 8.84 µM, the TGI [8] was 19.4 µM and the TGI [9] was 25.9 µM. For the same compound, the TGI [10] was 28.3 µM, the TGI [11] was 17.3 µM and the TGI [12] was 20.2 µM. For the same compound, the TGI [13] was 24.7 µM, the TGI [14] was 20.9 µM and the TGI [15] was 28.1 µM. For the same compound, the TGI [16] was 29.3 µM, the TGI [17] was > 55.3 µM and the TGI [18] was 30.4 µM. The TGI [19] was 23.4 µM, the TGI [20] was 9.78 µM and the TGI [21] was 26.9 µM. The TGI [22] was 4.59 µM, the TGI [23] was 31.5 µM and the TGI [24] was 51 µM. It also gave a TGI [25] of 19.5 µM, a TGI [26] of 31.2 µM and a TGI [27] of 23.7 µM. The TGI [28] was 30.2 µM, the TGI [29] was 8.49 µM and the TGI [30] was 19.4 µM. The TGI [31] was 15.6 µM, the TGI [32] was 30.6 µM and the TGI [33] was 5.42 µM. The TGI [34] was 34.4 µM, the TGI [35] was 23.6 µM and the TGI [36] was 10.6 µM. It also gave a TGI [37] of 31.3 µM, a TGI [38] of 19.3 µM and a TGI [39] of 25.8 µM. The TGI [40] was 32.9 µM, the TGI [41] was 22.2 µM and the TGI [42] was 33.4 µM. For the same compound, the TGI [43] was 25.7 µM, the TGI [44] was 34.5 µM and the TGI [45] was 33.5 µM. The TGI [46] was 35.3 µM, the TGI [47] was 13.6 µM and the TGI [48] was 26.1 µM. It also gave a TGI [49] of 30.2 µM, a TGI [50] of 48.7 µM and a TGI [51] of 28 µM. For the same compound, the TGI [52] was 17 µM, the TGI [53] was 32.2 µM and the TGI [54] was 27.5 µM. The TGI [55] was 31.2 µM, the TGI [56] was 25.1 µM and the TGI [57] was 22.1 µM. The TGI [58] was 4.31 µM.
In the case of `CCSc1n/c(=C\c2ccc(N(C)C)cc2)c2nnnn12`, the TGI [1] is reported as > 100 µM, the TGI [2] is reported as > 100 µM and the TGI [3] is reported as > 100 µM. The TGI [4] was > 100 µM, the TGI [5] was > 100 µM and the TGI [6] was > 100 µM. For the same compound, the TGI [7] was > 100 µM, the TGI [8] was > 100 µM and the TGI [9] was > 100 µM. The TGI [10] was > 100 µM, the TGI [11] was > 100 µM and the TGI [12] was > 100 µM. The TGI [13] was > 100 µM, the TGI [14] was > 100 µM and the TGI [15] was > 100 µM. For the same compound, the TGI [16] was > 100 µM, the TGI [17] was > 100 µM and the TGI [18] was > 100 µM. For the same compound, the TGI [19] was > 100 µM, the TGI [21] was > 100 µM and the TGI [23] was > 100 µM. The TGI [24] was > 100 µM, the TGI [25] was > 100 µM and the TGI [26] was > 100 µM. The TGI [27] was > 100 µM, the TGI [28] was > 100 µM and the TGI [29] was > 100 µM. For the same compound, the TGI [30] was > 100 µM, the TGI [31] was > 100 µM and the TGI [32] was > 100 µM. The TGI [33] was > 100 µM, the TGI [34] was > 100 µM and the TGI [35] was > 100 µM. For the same compound, the TGI [36] was > 100 µM, the TGI [37] was > 100 µM and the TGI [38] was > 100 µM. The TGI [39] was > 100 µM, the TGI [40] was > 100 µM and the TGI [41] was > 100 µM. The TGI [42] was > 100 µM, the TGI [43] was > 100 µM and the TGI [45] was > 100 µM. The TGI [46] was > 100 µM, the TGI [47] was > 100 µM and the TGI [48] was > 100 µM. The TGI [49] was > 100 µM, the TGI [50] was > 100 µM and the TGI [51] was > 100 µM. The TGI [52] was > 100 µM, the TGI [53] was > 100 µM and the TGI [54] was > 100 µM. For the same compound, the TGI [55] was > 100 µM, the TGI [56] was > 100 µM and the TGI [57] was > 100 µM.
In the case of `CC1CC2(OC2C)C(=O)OC2CCN(C)C/C=C(/COC(=O)C1(C)O)C2=O` (stereo not drawn), the TGI [1] is reported as > 100 µM, the TGI [2] is reported as > 100 µM and the TGI [3] is reported as > 100 µM. For the same compound, the TGI [4] was > 100 µM, the TGI [5] was > 100 µM and the TGI [6] was > 100 µM. For the same compound, the TGI [7] was > 100 µM, the TGI [8] was > 100 µM and the TGI [9] was > 100 µM. For the same compound, the TGI [10] was > 100 µM, the TGI [11] was > 100 µM and the TGI [12] was > 100 µM. The TGI [13] was > 100 µM, the TGI [14] was > 100 µM and the TGI [15] was > 100 µM. For the same compound, the TGI [16] was > 100 µM, the TGI [17] was > 100 µM and the TGI [18] was > 100 µM. For the same compound, the TGI [19] was > 100 µM, the TGI [20] was > 100 µM and the TGI [21] was > 100 µM. The TGI [22] was > 100 µM, the TGI [23] was > 100 µM and the TGI [24] was > 100 µM. The TGI [25] was > 100 µM, the TGI [26] was > 100 µM and the TGI [27] was > 100 µM. For the same compound, the TGI [28] was > 100 µM, the TGI [31] was > 100 µM and the TGI [32] was > 100 µM. For the same compound, the TGI [33] was > 100 µM, the TGI [34] was > 100 µM and the TGI [35] was > 100 µM. The TGI [36] was > 100 µM, the TGI [37] was > 100 µM and the TGI [38] was > 100 µM. The TGI [39] was > 100 µM, the TGI [40] was > 100 µM and the TGI [41] was > 100 µM. The TGI [42] was > 100 µM, the TGI [43] was > 100 µM and the TGI [44] was > 100 µM. For the same compound, the TGI [45] was > 100 µM, the TGI [46] was > 100 µM and the TGI [47] was > 100 µM. The TGI [48] was > 100 µM, the TGI [49] was > 100 µM and the TGI [50] was > 100 µM. The TGI [51] was > 100 µM, the TGI [52] was > 100 µM and the TGI [53] was > 100 µM. The TGI [54] was > 100 µM, the TGI [55] was > 100 µM and the TGI [56] was > 100 µM. For the same compound, the TGI [57] was > 100 µM and the TGI [58] was > 100 µM.
